Experimental data as given in patent US20050085645A1, “O-(3-chloropropenyl) hydroxylamine free base” (priority 2003, published 2005).

Tests used:
[1] = Storage stability of CPHA free base and CPHA-HCl solutions (decomposition / GC purity drop); assay type: physicochemical
Description: Neither preparation nor applications of solvent-free CPHA free base or aqueous CPHA solution has been reported in the prior art. […] For example, a commercial 40% CPHA-HCl solution decomposes by 52% after 23 days at 35° C., whereas, a 85% CPHA aqueous solution has only 1.1% purity drop after 78 days at 40° C.
The GC method set up for CPHA purity, impurity profile, and hydroxylamine content determination is described as follows. • Instrument: HP 6890 series GC system. • Column: HP-1 capillary column, 10 m×0.53 mm×[…]. • Detector: FID, 250° C. • Inlet: 200° C. • Oven Temperature program: • Initial temperature: 40° C. • Initial time: 2 minutes. • Ramps: 10° C./min, 65° C., 0 minutes • 20° C./min, 250° C., 3 minutes.
Weigh about 2.00 g of sample in a vial containing 2.20 g of cyclohexanone; Add 50% sodium hydroxide if necessary to bring pH to above 9. Stir the mixture in the capped vial at 50° C. for 2 hours. After cooling, add 8.0 g of dichloromethane and shake for one minute. Settle the mixture for 5 minutes. Take the organic phase for gas chromatographic (GC) analysis. CPHA purity and impurity profile are directly based on GC area. Hydroxylamine content is calculated based on the integration area of cyclohexanone oxime (cyclohexanoxime) peak and O-(chloro-2-propenyl)cyclohexanoxime peak.

[2] = Solubility / miscibility in water; assay type: physicochemical
[3] = Solubility in organic solvents; assay type: physicochemical; conditions: ethers, alcohol, toluene, chlorinated alkanes
Source text: For example, to make a O-(3-chloro-2-propenyl)hydroxylamine solution in dichloromethane, CPHA is simply mixed with dichloromethane. No exotherm was observed.

plants = test: Herbicidal potency of clethodim enantiomer versus racemate; assay type: in vivo; conditions: used in a herbicidal composition; no test data given

Structure (SMILES): NOCC=CCl [CPHA, O-(3-Chloro-2-propenyl)hydroxylamine]
- purity drop ([1]; 85% CPHA aqueous solution, after 78 days at 40° C.): 1.1%
- miscibility with water ([2]; room temperature): miscible with water
- solubility in organic solvents [3]: soluble in many organic solvents

Structure (SMILES): CCSC(C)CC1CC(=O)C(/C(CC)=N/OC/C=C/Cl)=C(O)C1 (single isomer, unassigned; (-)) [(−) clethodim]
- potency compared to the racemic form or (+) clethodim (plants): increased potency

Structure (SMILES): Cl.NOCC=CCl [CPHA-HCl, O-(3-chloro-2-propenyl)hydroxylamine hydrochloride, reference compound]
- decomposition of solution ([1]; commercial 40% CPHA-HCl solution, after 23 days at 35° C.): 52%
- maximum solubility ([2]; commercially available CPHA-HCl solution in water): about 45%
